Experimental data taken from PMC3742241, “Novel Hybrid Virtual Screening Protocol Based on Molecular Docking and Structure-Based Pharmacophore for Discovery of Methionyl-tRNA Synthetase Inhibitors as Antibacterial Agents” (International Journal of Molecular Sciences, 2013).
≈ marks a conversion by molar mass, not a printed value.

Experiments:
[1] = test system: Staphylococcus aureus ATCC 29213; test: In vitro MIC, broth microdilution, S. aureus; assay type: cell-based; details: ATCC29213, 5 × 10^5 CFU/mL, 16 h at 37 °C, read-out: MIC, Gram-positive bacteria, S. aureus
Description: (§1) The 15 final hit compounds were purchased and screened for preliminary in vitro antibacterial activity against our five ATCC-bacterial strain panel (Staphylococcus aureus ATCC 29213, Methicillin-resistant Staphylococcus aureus ATCC 43300, E. coli ATCC 25922, Pseudomonas aeruginosa ATCC 27853 and Klebsiella pneumoniae ATCC 700603) by using the standard broth dilution method. […] All of the 15 final hit compounds were tested against HEK293 cell lines to avoid potential cytotoxicity of normal human cells. […] Further chemical optimization is being performed to better understand the key residues for activity and selectivity.
(§2) MICs were determined using a microdilution method with Muellere Hinton Broth (MHB) for Staphylococci and Lennox Broth (LB) for Enterococci, following the National Committee for Clinical Laboratory Standards (NCCLS) (now called the Clinical Laboratory Standards Institute [CLSI]). The stock solutions of the test compounds were diluted to give a two-fold series, with final chemical concentrations ranging from […].

[2] = test system: Escherichia coli ATCC 25922; test: In vitro MIC, broth microdilution, E. coli; assay type: cell-based; details: ATCC25922, 5 × 10^5 CFU/mL, 16 h at 37 °C, read-out: MIC, Gram-negative bacteria, E. coli
Description: as §1, §2

[3] = test system: Klebsiella pneumoniae ATCC 700603; test: In vitro MIC, broth microdilution, K. pneumoniae; assay type: cell-based; details: ATCC700603, 5 × 10^5 CFU/mL, 16 h at 37 °C, read-out: MIC, Gram-negative bacteria, K. pneumoniae
Description: as §1, §2

[4] = test system: Methicillin-resistant Staphylococcus aureus ATCC 43300; test: In vitro MIC, broth microdilution, MRSA; assay type: cell-based; details: 5 × 10^5 CFU/mL, 16 h at 37 °C, read-out: MIC, Gram-positive bacteria, MRSA
Description: as §1, §2

[5] = In vitro cytotoxicity assay (MTT); assay type: cell-based, Human; details: human; HEK293 cells; 48 h; MTT
Description: as §1
(§3) Human Embryonic Kidney 293 cell line (HEK293) was acquired from ATCC. The cells were cultured in DMEM medium (Gibco-BRL, Invitrogen Co. Ltd., Carlsbad, CA, USA) supplemented with 10% (v/v) fetal bovine serum plus 100 μg/mL amikacin. The cells were maintained in a 37 °C humidified incubator with 5% CO2 atmosphere. Analysis of in vitro cytotoxicity was performed in the presence of compounds or blank solvent on cell lines seeded in 96-well plates at the density of 2 × 10^3 cells/well in serum-containing media. After 24 h incubation at 37 °C, the cells were treated with different concentrations of compounds along with a blank solvent. The cells were incubated in these conditions for 48 h. The cell viability was assessed with the 3-(4,5-dimethylthiazol-2-yl)-2,5-diphenyltetrazolium bromide (MTT) method, as previously described.

[6] = test system: Pseudomonas aeruginosa ATCC 27853; test: In vitro MIC, broth microdilution, P. aeruginosa; assay type: cell-based; details: ATCC27853, 5 × 10^5 CFU/mL, 16 h at 37 °C, read-out: MIC, Gram-negative bacteria, P. aeruginosa
Description: as §1, §2

HEK293 cells = test: In vitro cytotoxicity assay (MTT); assay type: cell-based, Human
Description: as §1, §3

| MIC [1] [mg/L] | MIC [2] [mg/L] | MIC [3] [mg/L] | MIC [4] [mg/L] | MIC [6] [mg/L] | SMILES | IC50 at 48 h [5] [µM] | Cytotoxicity to HEK293 cells (in words) (HEK293 cells) |
| --- | --- | --- | --- | --- | --- | --- | --- |
| 64 (≈ 159 µM) | 64 (≈ 159 µM) | 64 (≈ 159 µM) | 64 (≈ 159 µM) | 16 (≈ 39.7 µM) | Cc1sc(NC(=O)c2ccco2)c(C(Nc2ccccn2)c2ccccc2)c1C (centres unmarked) [ZINC02709613] | > 20 |  |
| 32 (≈ 60.6 µM) | 64 (≈ 121 µM) | 64 (≈ 121 µM) | 32 (≈ 60.6 µM) | 64 (≈ 121 µM) | O=C(NCCN1CCN(C(=O)c2ccc(Cl)cc2Cl)CC1)C(=O)Nc1ccc(Br)cc1 [ZINC08451958] | > 20 |  |
| 32 | 32 | 64 | 32 | 16 | CCCCCCCC[n+]1cccc(C(=O)N2CCNc3nc(NC(=O)C(C)C)[nH]c(=O)c32)c1 [ZINC08384332] | > 20 |  |
| 8 (≈ 16.9 µM) | 16 (≈ 33.8 µM) | 32 (≈ 67.6 µM) | 16 (≈ 33.8 µM) | 8 (≈ 16.9 µM) | Cc1ccccc1C(=O)N1CCN(CCNC(=O)C(=O)Nc2ccc(Br)cc2)CC1 [ZINC08452043] | 10.2 |  |
| 16 | 16 | 64 | 32 | 64 | CCCC[n+]1c(N)c(C(=O)NCc2ccc(C)cc2)cc2c(=O)n3cccc(C)c3nc21 [ZINC02424508] | > 20 |  |
| 32 (≈ 78 µM) | 64 (≈ 156 µM) | 64 (≈ 156 µM) | 64 (≈ 156 µM) | 64 (≈ 156 µM) | COc1ccc(C(=O)N2CCN(CCNC(=O)C(=O)Nc3ccccc3)CC2)cc1 [ZINC04380079] | 6.84 |  |
| 16 (≈ 38.4 µM) | 64 (≈ 154 µM) | 64 (≈ 154 µM) | 32 (≈ 76.8 µM) | 32 (≈ 76.8 µM) | Cc1ccc2c(c1)c1c3n2CCN(CC(=O)CNNC(=O)c2ccccc2)C3CCC1 (centres unmarked) [ZINC08430843] | > 20 |  |
| 64 (≈ 159 µM) | 64 (≈ 159 µM) | 32 (≈ 79.7 µM) | 64 (≈ 159 µM) | 16 (≈ 39.8 µM) | CN(C)CCCNC(=O)c1ccccc1NC(=O)c1ccc(-c2ccccc2)cc1 [ZINC10312776] | > 20 |  |
| 8 (≈ 22.3 µM) | 32 (≈ 89.3 µM) | 16 (≈ 44.6 µM) | 16 (≈ 44.6 µM) | 4 (≈ 11.2 µM) | CC1(C)Cc2c(ccc3ccccc23)C(NNC(=O)c2cccc(N)c2)=N1 [ZINC00729256] | > 20 | non-cytotoxicity |
| 4 (≈ 10.3 µM) | 8 (≈ 20.5 µM) | 32 (≈ 82.2 µM) | 16 (≈ 41.1 µM) | 16 (≈ 41.1 µM) | CNC(=O)NC(=O)CSc1nc2sc(-c3ccccc3)cc2c(=O)n1N [ZINC02181060] | 15.4 |  |
| 32 (≈ 72.1 µM) | 64 (≈ 144 µM) | 64 (≈ 144 µM) | 64 (≈ 144 µM) | 16 (≈ 36.1 µM) | CC1CCCc2sc3c(=O)n(N)c(SCC(=O)NC(=O)Nc4ccccc4)nc3c21 (centres unmarked) [ZINC19797060] | > 20 |  |
| 32 (≈ 86.6 µM) | 32 (≈ 86.6 µM) | 64 (≈ 173 µM) | 64 (≈ 173 µM) | 16 (≈ 43.3 µM) | Cc1ccc2ccc([C@H](Nc3ccccn3)c3ccc(C)c(C)c3)c(O)c2n1 [ZINC02086896] | 3.15 |  |
| 32 (≈ 71.2 µM) | 64 (≈ 142 µM) | 64 (≈ 142 µM) | 64 (≈ 142 µM) | 32 (≈ 71.2 µM) | COc1cc(CNCCc2ccc(S(N)(=O)=O)cc2)ccc1OCC(=O)NC(C)(C)C [ZINC19922703] | > 20 |  |
| 32 (≈ 72.1 µM) | 64 (≈ 144 µM) | 64 (≈ 144 µM) | 32 (≈ 72.1 µM) | 64 (≈ 144 µM) | CC1CCCc2sc3nc(SCC(=O)NC(=O)Nc4ccccc4)n(N)c(=O)c3c21 (centres unmarked) [ZINC19797059] | > 20 |  |
| 4 (≈ 8.38 µM) | 16 (≈ 33.5 µM) | 64 (≈ 134 µM) | 4 (≈ 8.38 µM) | 8 (≈ 16.8 µM) | CCc1ccc(NC(=O)C(=O)NCCN2CCN(C(=O)c3ccc(Cl)cc3Cl)CC2)cc1 [ZINC06843697] | > 20 | non-cytotoxicity |
